Assay results reported in patent US7183317B2, “Compounds and methods to increase plasma HDL cholesterol levels and improve HDL functionality” (Atherogenics, Inc., priority 2004, dated 2007).
Values joined by “and” are separate entries in the source; they are usually repeats but may differ in a detail not shown here. Equal entries are not always repeated.

Tests used:
HepG2 cells [1] = assay: apoAI-HDL elevation cell-based screen (apoAI accumulation by ELISA); set-up: species or system human; conditions: for increase of apoAI accumulation / circulating apoAI-HDL: 1 mM
Method: HepG2 cells were obtained from the American Type Culture Collection (Rockville, Md.). Fetal bovine serum (FBS) was purchased from Gibco Laboratories. Cells were cultured in minimum essential medium (MEM) containing 10% FBS, and 100 μg/mL of streptomycin, 100 unit/mL of penicillin, and 4 mM of glutamine (Gibco/BRL). Cells were grown for 2 days till they are 80% confluent in 6-well, or 12-well plates before studies. In all cases medium was changed every other day.
To measure apoAI, 96-well microtiter plates were coated with a 1:1000 diluted mixture of three monoclonal antibodies against human apoAI (A05, A17, and A44) for 2 h and incubated in succession with HDL3 (0 to 15 ng/well), sheep polyclonal anti-apoAI serum (Boehringer Mannheim), alkaline phosphatase-labeled rabbit anti-sheep (Cappel), and p-nitrophenyl phosphate (1 mg/mL in 10 mmol/L ethanolamine, 0.5 mmol/L MgCl2, pH 9.5), for 2, 1 and 1 h respectively at 37° C. The plates were washed three times between different incubations. The absorbance at 405 nm was determined by using a Bio-Rad model 550 microplate reader (Bio-Rad).
The effect of Compound A on apoAI-HDL elevation was measured using a cell-based screen assay. The hepatic model, HepG2 cells, was used to observe the accumulation of apoAI as a result of secretion and/or uptake of apoAI; both processes taking place in the liver. HepG2 cells were treated with compounds for 24 hours or 48 hours in DMEM containing 1% RSA. apoAI accumulation was measured by ELISA as described in Materials and Methods.

[2] = system: hypercholesterolemic hamsters; assay type: in vivo; conditions: two weeks; for percent increase of HDL cholesterol: 150 mg/kg/d in chow; for percent increase of HDL cholesterol / percent lowering of HDLc: compared to untreated controls
Text: Male Golden Syrian hamsters weighing 110–120 g were obtained from Charles River Laboratories (Wilmington, Mass.). Hamsters were housed individually with wood chip bedding and soft nesting material with lights on a 6 A.M. and off at 6 p.m. Upon arrival the hamsters were acclimated for three days on standard rodent chow and water (Purina rodent chow 5001) ad libitum. Prior to dosing, the hamsters were made hypercholesterolemic by feeding them a powdered diet supplemented with 0.5% cholesterol and 10% coconut oil (Harlan Teklad diet #97235) for one week. Water was added to the powdered chow to form a paste and the chow paste rolled into balls with each animal receiving 20 g of chow paste per day in stainless steel bowls. Chow intake was recorded daily. Body weights were recorded after one week and at the end of the end of the study. Hamsters were distributed into treatment groups after the one-week pretreatment period such that each group had similar average body weights.
Compound A homogenized in methylcellulose/Tween-20 using a polytron PT2100 homogenizer (Brinkman) before adding it to the high cholesterol chow paste and administered as an admixture at the same time each morning for two weeks. At the end of the treatment period the hamsters were fasted in the late afternoon on the day prior to blood collection. Fasting was achieved by transferring the hamsters to clean cages and removing chow stored in cheek pouches. Hamsters were anesthetized with ketamine/rompun solution. When unresponsive to toe pinch and still respiring, blood was collected via cardiac puncture from which plasma was separated and frozen at −80° C.
Lipoproteins were isolated from whole plasma by Fast Phase Liquid Chromatography (FPLC). Cholesterol and triglyceride concentrations in the different lipoprotein fractions were determined by enzymatic methods using a CX-5 chemical analyzer and standard Beckman reagents.
A Dunnetts test was used to compare the experimental and control groups. P<0.05 was considered significant.
The effect of Compound A on HDLc levels was assessed using hypercholesterolemic hamsters. Male Golden Syrian hamsters were fed as described in Materials and Methods. Compound A homogenized as described above before adding it to the high cholesterol chow paste and administered as an admixture at the same time each morning for two weeks. At the end of the treatment period the hamsters were fasted in the late afternoon on the day prior to blood collection. Hamsters were anesthetized with ketamine/rompun solution. When unresponsive to toe pinch and still respiring, blood was collected via cardiac puncture from which plasma was separated and frozen at −80° C.
LDL cholesterol was not affected. Lipid profiles were obtained according to the method published by Lee, A. and coworkers (W. Innis-Whitehouse, X. Li, V. Brown and N. Lee., J. Lipid Res. 39, 679 (1998)).

HepG2 cells [3] = assay: Uptake/delivery of 3[H] cholesteryl ester-HDL to HepG2 cells; assay type: cell-based, human; conditions: 12.5 μM, 50 μg/ml 3[H] CE-HDL, 3.5 h, 37° C., vs 100% delivery without compound
Method: ^3[H]cholesteryl Hexadecyl Ether-labeled HDL was prepared as described by Rodrigueza et al. (Rodrigueza W. V. et al. (1999) J. Biol. Chem. 274:20344–20350). 40 μCi of ^3[H]hexadecyl ether (40–60 Ci/mmol, NEN life Sciences Products) were incubated with 5 mg of HDL3 and 240 mg of heat-inactivated lipoprotein-deficient plasma, 0.01% aprotinin in a polypropylene tube sealed with nitrogen gas for 40 h at 37° C. according to the method of Terpstra et al. ^3[H]-CE enriched HDL was re-isolated by flotation ultracentrifugation and dialyzed against phosphate-buffered saline (PBS). To perform CE uptake studies, HepG2 cells, seeded in 6 or 12 well plates were grown for 2 days till 80% confluent and, then treated with compounds in 1% RSA-DMEM medium for 24 h. The next day, cells were treated with 12.5 μM compounds and 50 μg/mL of ^3[H]-CE HDL for 3.5 h at 37° C. After incubation, cells were washed 4 times with PBS/BSA and 2 times with PBS, followed by addition of 0.1 N NAOH. Cells were collected, and radioactivity was measured in counts per minute and expressed as percent of ^3[H]-CE delivered to cells.
HepG2 cells were cultured as described above and incubated with 50 μg/ml of ^3[H] CE-HDL particles and compounds for 3.5 h at 37° C. […] CE delivery to HepG2 cells resulting from treatment with indicated compounds compared to a 100% delivery in the absence of any compound. […] CE, as also described by Jin et al. (Jin, F. et al. (1997) Atheroscler. Thromb Vasc Biol. 17: 2020–2028).

SR-BI/II receptors = assay: 3[H] CE delivery to HepG2 cells with anti SR-BI/II antibody blocking; assay type: cell-based
Method: It was important to discern whether or not Compound A was acting through the SR-BI/II receptors to increase the delivery of cholesterol. HepG2 cells were incubated with anti-mouse SR-BI/II antibodies for 45 min. Compound A was then added, and the cells were incubated with 30 μg/ml of ^3[H] CE-HDL for 3.5 h at 37° C. Anti-mouse SR-BI/II antibodies (1.0 mg/mL) reduced delivery of ^3[H] CE by 76%, while Compound A increase the delivery of ^3[H] CE to HepG2 cells by 56%. […] CE to cells provoked by Compound A. Further the anti SR-BI/II antibodies decreased the delivery of ^3[H] CE from 156% to 28% (FIG. 4).

HDL holoprotein = assay: Hepatic clearance/uptake of HDL holoprotein; assay type: cell-based
Text: The trichloroacetic-precipitable labeled apoAI-HDL in the conditioned medium represents degraded labeled apoAI-HDL. After washing and detaching, cells are centrifuged. Labeled apoAI-HDL in the cellular fraction represents internalized HDL holoprotein; whereas, label in the supernatant represents cell surface bound apoAI-HDL that has been dissociated. Increased amounts of labeled HDL in cells treated with compounds versus cells not treated with compounds indicates increased degradation, internalization, or binding to the cell surface. Compounds are selected which decrease the amount of apoAI-HDL label in the cellular fraction of the cells contacted with a test compound compared to the amount of label in the cellular fraction of the cells not contacted with the test compound. […] Label in the conditioned medium represents degraded labeled-HDL. After washing and detaching, cells are centrifuged. Label in the cellular fraction represents internalized HDL holoprotein; whereas, label in the supernatant represents cell surface bound apoAI-HDL that has been dissociated. Increased amounts of label in cells treated with compounds versus cells not treated with compounds indicates increased degradation, internalization, or binding of apoAI-HDL to the cell surface. […]

apoAI = apoAI synthesis; assay type: cell-based
[4] = 12.5 μM, compared to control (absence of compounds)

CC(C)(Sc1cc(C(C)(C)C)c(O)c(C(C)(C)C)c1)Sc1cc(C(C)(C)C)c(OCCCCOS(=O)(=O)O)c(C(C)(C)C)c1 [B, Sulfuric acid, mono-(4-{2,6-di-tert-butyl-4-[1-(3,5-di-tert-butyl-4-hydroxy-phenyl-sulfanyl)-1-methylethylsulfanyl]-phenoxy}-butyl)ester]
percent increase of apoAI (apoAI-HDL) accumulation (HepG2 cells [1]; [4]): ~30%

CC(C)(Sc1cc(C(C)(C)C)c(O)c(C(C)(C)C)c1)Sc1cc(C(C)(C)C)c(OC[C@@H](O)[C@@H](O)[C@@H](O)C(=O)O)c(C(C)(C)C)c1 [Compound A, 5-[4-[1-[(3,5-bis(1,1-dimethylethyl)-4-hydroxyphenyl)thio]-1-methylethyl]thio-2,6-bis(1,1-dimethylethyl)phenoxy]-2(R),3(R),4(R)-trihydroxypentanoic acid]
percent increase of HDL cholesterol [2]: 30%
effect on LDL cholesterol ([2]; 150 mg/kg/d): not affected
percent increase of apoAI (apoAI-HDL) accumulation (HepG2 cells [1]; [4]): 122.5% and 122%
percent increase of apoAI (apoAI-HDL) accumulation (HepG2 cells [1]; 25 μM, compared to control): 132.5% and 132%
percent increase of 3[H]CE delivery to HepG2 cells (HepG2 cells [3]): 109% and 108%
percent increase of 3[H]CE delivery to HepG2 cells (SR-BI/II receptors; 30 μg/ml 3[H] CE-HDL, 3.5 h, 37° C., no antibody): 56%
delivery of 3[H] CE, percent of control (SR-BI/II receptors; Compound A in presence of anti SR-BI/II antibodies): 28%
delivery of 3[H] CE, percent of control (SR-BI/II receptors; Compound A without antibodies): 156%

CC(C)(Sc1cc(C(C)(C)C)c(O)c(C(C)(C)C)c1)Sc1cc(C(C)(C)C)c(OCC(O)CNCC(=O)O)c(C(C)(C)C)c1 (centres unmarked) [Compound C, Glycine, N-[3-[4-[1-[[3,5-bis(1,1-dimethylethyl)-4-hydroxyphenyl]thio]-methylethyl]thio-2,6-bis(1,1-dimethylethyl)phenoxy]-2-hydroxypropyl]]
percent increase of HDL cholesterol [2]: 40%
percent increase of apoAI (apoAI-HDL) accumulation (HepG2 cells [1]; [4]): ~15%

CC(C)(Sc1cc(C(C)(C)C)c(O)c(C(C)(C)C)c1)Sc1cc(C(C)(C)C)c(OC[C@H]2OC(O)[C@H](O)[C@@H](O)[C@@H]2O)c(C(C)(C)C)c1 (some centres unmarked) [Compound D]
percent lowering of HDLc ([2]; 150 mg/kg/d): ~80%
percent decrease of apoAI (apoAI-HDL) accumulation (HepG2 cells [1]; 12.5 μM, compared to control): about 10%

CC(C)(Sc1cc(C(C)(C)C)c(O)c(C(C)(C)C)c1)Sc1cc(C(C)(C)C)c(OC[C@@H](O)[C@H](O)[C@H](O)[C@H](O)CO)c(C(C)(C)C)c1 [Compound E]
percent lowering of HDLc ([2]; 150 mg/kg/d): ~40%
percent decrease of apoAI (apoAI-HDL) accumulation (HepG2 cells [1]; 12.5 μM, compared to control): about 10%

O=C(O)c1cccnc1 [Niacin, Nicotinic acid, reference compound]
increase of apoAI accumulation / circulating apoAI-HDL (HepG2 cells [1]): increased
increase of apoAI accumulation / circulating apoAI-HDL (HepG2 cells [1]; listed as niacin): 10%

CC(C)(Sc1cc(C(C)(C)C)c(O)c(C(C)(C)C)c1)Sc1cc(C(C)(C)C)c(O)c(C(C)(C)C)c1 [Probucol, 4,4′-(isopropylidenedithio)bis(2,6-di-tert-butylphenol), reference compound]
percent decrease of apoAI (apoAI-HDL) accumulation (HepG2 cells [1]; 12.5 μM, compared to control): 23%
percent increase of 3[H]CE delivery to HepG2 cells (HepG2 cells [3]): 29%
percent increase of 3[H]CE delivery to HepG2 cells (HepG2 cells [3]; listed as probucol): increased
HDL holoprotein uptake (HDL holoprotein): reduced
effect on synthesis of apoAI (newly synthesized apoAI) (apoAI): reduced

CC1=C(/C=C/C(C)=C/C=C/C(C)=C/C(=O)O)C(C)(C)CCC1 [Retinoic acid, reference compound]
percent increase of apoAI accumulation (HepG2 cells [1]; 10 μM, positive control): 53.6%
